{"source": "patent US20110034472A1", "about": "“Novel Compounds for Treatment of Cancer and Disorders Associated With Angiogenesis Function” (UNIVERSITY OF SOUTHERN CALIFORNIA, priority 2004, published 2011)", "key": {"UACC-62 melanoma cells": {"test_system": "UACC-62 melanoma cells", "assay": "Sensitivity of various cancer cells to SC144, UACC-62", "assay_type": "cell-based", "conditions": "Homo sapiens", "text": "The studies were expanded to other cell lines. […] Subnanomolar to low nanomolar potency was also observed in HCT-116 and HT29 colon cancer cell lines (Table 2)."}, "MDA-MB-435 cells": {"test_system": "MDA-MB-435 cells", "assay": "Annexin V/PI apoptosis analysis, SC144 and CPT", "assay_type": "cell-based, human", "conditions": "48 h; IC80", "text": "Cells were stained with annexin V/PI and analyzed by flow cytometry. Cells in the bottom left quadrant of each panel (Annexin V-negative, PI-negative) are viable, whereas cells in the bottom right quadrant (Annexin V-positive, PI-negative) are in the early stages of apoptosis, and cells in the top right quadrant (Annexin V-positive, PI-positive) are in later stages of apoptosis and necrosis.\nAn early event in apoptotic cell death is the translocation of the phosphatidyl-serine residues to the outer part of the cell membrane. This event precedes nuclear breakdown, DNA fragmentation, the appearance of most apoptosis-associated molecules, and is readily measured by annexin V binding assay. By this method, SC144 was compared with CPT."}}, "data": [{"smiles": "O=C(NNc1nc2cc(F)ccc2n2cccc12)c1cnccn1", "note": "[SC144, Pyrazine-2-carboxylic acid N′-(7-fluoro-pyrrolo[1,2-a]quinoxalin-4-yl)-hydrazide]", "values": [{"measurement": "CC50", "setting": "UACC-62 melanoma cells", "value": 800, "unit": "nM"}, {"measurement": "early-apoptotic cells", "setting": "MDA-MB-435 cells", "value": 37, "unit": "%"}, {"measurement": "late-apoptosis/necrosis", "setting": "MDA-MB-435 cells", "value": 16, "unit": "%"}]}]}
